Results reported in PMC12016938, “A small molecule PKCε inhibitor reduces hyperalgesia induced by paclitaxel or opioid withdrawal” (JCI Insight, 2025).
“And” between values parts separate entries of the source, which are not always exact repeats. Equal values may be shown once.

Test system: self-administration (addictive potential)
Test: I.v. self-administration of CP612, between-session progressive ratio and demand curve
Method: We tested the addictive potential of CP612 by examining the extent to which rats are willing to work to obtain CP612. Rats were initially trained to self-administer either saline, morphine (500 μg/kg/i.v. infusion), or 1 of 3 different doses of CP612 (75, 150, or 300 μg/kg/i.v. infusion) for 4 days at fixed ratio 1 (FR1, where 1 nose poke delivers 1 infusion).
During the second phase, the ratio to obtain an infusion increased geometrically every other day (FR1, FR3, FR6, FR12, FR24, FR48, and FR96).
Data (number of self-infusions) were also fitted in an economic-demand curve, which provides an estimate of the motivation to obtain drugs and their addictive potential ([20]). We measured elasticity (α), which is the relative change in consumption as a function of price (i.e., ratio of nose pokes required to obtain an infusion). Behavior is considered “inelastic” when consumption is insensitive to price and “elastic” when consumption is sensitive to price. We also measured Pmax, which is the price at which intake switches from inelastic to elastic. […] (Figure 8B).
Rats not immediately anesthetized were eliminated from the study.
Following this initial acquisition phase at FR1, the ratio to obtain the drug was increased geometrically every other day: FR3 (3 nose pokes are required to obtain 1 infusion of morphine), FR6, FR12, FR24, FR48, and FR96. This allows for analysis of drug consumption as a function of “price” using demand curves for behavioral economics, which can estimate the motivation to obtain drugs and their “addictive potential” ([20]). For this, data from each rat were fitted to the equation log Q = log Q0 + k (e ^–α(Q0 ^C) – 1), where Q represents consumption (number of self-infusions), and Q0 represents the level of consumption at the lowest price. C represents price for the drug (i.e., the ratio), and k is set to a constant accounting for the estimated range of consumption in logarithmic units (k = 4 in these studies). The symbol α is the relative change in consumption across changes in price (ratio). Behavior is considered “inelastic” when consumption is insensitive to price (i.e., the curve is flat, and consumption is maintained despite increases in price), and it switches to “elastic” when consumption is sensitive to price (i.e., when the curve is steep and consumption declines with increases in price). […] We also compared groups for their average intake in the consumption-price curves by measuring α (elasticity) and Pmax.

N[C@H](CNC(=O)C1(c2ccc(Cl)cc2)CCCC1)c1ccc(C(=O)Nc2ccncc2)cc1 [CP612]
AVG Latency (FR1_D1 to D4) (CP612-High, individual rat): 0.277 and 0.6 and 2.3 and 1.8 and 0.8 and 0.9 and 1.0 | AVG Latency (FR1_Last 2 FR1 days) (CP612-High, individual rat): 0.051 and 0.179 and 0.9 and 1.8 and 0.219 and 0.171 | AVG Latency (FR1_Last 4 FR1 days) (CP612-High, individual rat): 0.076 and 0.283 and 1.5 and 1.8 and 0.8 and 0.9 and 0.53 | AVG Latency (FR3) (CP612-High, individual rat): 1.2 and 0.116 and 2.8 and 0.5 and 0.236 and 1.4 and 0.326 | AVG Latency (FR6) (CP612-High, individual rat): 0.64 and 0.4 and 0.643 and 1.9 and 0.8 and 2.5 and 0.6 | AVG Latency (FR12) (CP612-High, individual rat): 14.4 and 2.6 and 0.5 and 4.0 and 0.6 and 2.1 | AVG Latency (FR24) (CP612-High, individual rat): 1.9 and 0.9 and 0.3 and 0.6 and 2.3 and 1.3 | AVG Latency (FR48) (CP612-High, individual rat): 14.3 and 0.9 and 1.1 and 1.9 and 18.8 and 1.2 | AVG Latency (FR96) (CP612-High, individual rat): 13.6 and 1.5 and 0.9 and 12.9 and 2.4 and 0.8 | D1 Latency (FR1) (CP612-High, individual rat): 0.857 and 1.7 and 5.4 and 2.9 and 0.6 and 0.743 | D1 Latency (FR3) (CP612-High, individual rat): 2.0 and 0.108 and 0.043 and 0.6 and 0.3 and 0.19 and 0.232 | D1 Latency (FR6) (CP612-High, individual rat): 0.65 and 0.1 and 0.9 and 0.7 and 0.8 and 3.8 and 0.275 | D1 Latency (FR12) (CP612-High, individual rat): 27.0 and 1.2 and 0.527 and 5.7 and 0.283 and 3.2 and 2.2 | D1 Latency (FR24) (CP612-High, individual rat): 1.3 and 0.7 and 0.338 and 0.9 and 1.7 and 1.4 | D1 Latency (FR48) (CP612-High, individual rat): 16.8 and 0.4 and 0.255 and 0.142 and 1.1 and 36.4 and 0.743 | D1 Latency (FR96) (CP612-High, individual rat): 4.4 and 1.8 and 0.643 and 3.1 and 3.3 and 0.647 and 0.7 | D2 Latency (FR1) (CP612-High, individual rat): 0.077 and 0.4 and 2.0 and 0.6 and 2.2 and 0.9 | D2 Latency (FR3) (CP612-High, individual rat): 0.5 and 0.125 and 5.6 and 0.4 and 0.17 and 2.6 | D2 Latency (FR6) (CP612-High, individual rat): 0.6 and 0.7 and 0.4 and 3.1 and 0.8 and 1.2 and 0.9 | D2 Latency (FR12) (CP612-High, individual rat): 1.8 and 4.1 and 0.5 and 2.3 and 0.9 and 1.0 and 2.9 | D2 Latency (FR24) (CP612-High, individual rat): 2.5 and 1.2 and 0.257 and 0.283 and 0.355 and 2.9 | D2 Latency (FR48) (CP612-High, individual rat): 11.8 and 1.4 and 1.9 and 3.7 and 1.1 and 1.2 and 1.7 | D2 Latency (FR96) (CP612-High, individual rat): 22.7 and 1.2 and 1.1 and 1.6 and 0.9 and 2.4 | D3 Latency (FR1) (CP612-High, individual rat): 0.125 and 0.22 and 1.4 and 2.0 and 0.063 and 1.3 and 0.185 | D4 Latency (FR1) (CP612-High, individual rat): 0.05 and 0.138 and 0.457 and 1.7 and 0.375 and 0.547 and 0.158 | last Latency (FR1) (CP612-High, individual rat): 0.052 and 0.138 and 0.457 and 1.7 and 0.375 and 0.547 and 0.158 | last-1 Latency (FR1) (CP612-High, individual rat): 0.05 and 0.22 and 1.4 and 2.0 and 0.063 and 1.3 and 0.185 | last-2 Latency (FR1) (CP612-High, individual rat): 0.125 and 0.4 and 2.0 and 0.6 and 2.2 and 0.9 | last-3 Latency (FR1) (CP612-High, individual rat): 0.077 and 0.4 and 2.0 and 2.9 and 0.6 and 0.9 | AVG Latency (FR1_D1 to D4) (CP612-Low, individual rats): 4.9 and 0.7 and 2.4 and 1.7 and 1.1 | AVG Latency (FR1_Last 2 FR1 days) (CP612-Low, individual rats): 0.358 and 0.6 and 0.284 and 0.9 and 0.159 and 1.0 and 0.2 and 1.2 | AVG Latency (FR1_Last 4 FR1 days) (CP612-Low, individual rats): 1.9 and 0.8 and 0.222 and 0.443 and 1.2 and 0.5 and 0.6 | AVG Latency (FR3) (CP612-Low, individual rats): 0.8 and 1.6 and 4.5 and 0.452 and 0.377 and 4.0 and 0.095 and 0.182 | AVG Latency (FR6) (CP612-Low, individual rats): 1.5 and 1.4 and 2.2 and 0.323 and 0.9 and 0.163 and 0.233 | AVG Latency (FR12) (CP612-Low, individual rats): 1.6 and 0.566 and 0.8 and 0.4 and 2.4 and 1.9 and 1.0 | AVG Latency (FR24) (CP612-Low, individual rats): 3.5 and 0.6 and 1.0 and 0.8 and 0.426 and 5.1 and 1.2 and 0.7 | AVG Latency (FR48) (CP612-Low, individual rats): 0.7 and 2.3 and 2.2 and 0.372 and 0.844 and 2.6 and 0.335 and 1.6 | AVG Latency (FR96) (CP612-Low, individual rats): 1.1 and 0.176 and 4.5 and 0.551 and 1.2 and 0.0585 and 2.6 and 0.259 | D1 Latency (FR1) (CP612-Low, individual rats): 12.2 and 0.368 and 2.4 and 7.3 and 1.0 and 3.8 and 1.9 and 0.7 | D1 Latency (FR3) (CP612-Low, individual rats): 0.425 and 0.5 and 1.0 and 0.458 and 0.7 and 4.6 and 0.155 and 0.173 | D1 Latency (FR6) (CP612-Low, individual rats): 1.3 and 2.2 and 0.473 and 0.533 and 0.9 and 0.183 and 0.32 | D1 Latency (FR12) (CP612-Low, individual rats): 0.9 and 2.3 and 0.7 and 1.3 and 0.66 and 1.0 and 0.6 | D1 Latency (FR24) (CP612-Low, individual rats): 6.2 and 0.9 and 1.5 and 0.7 and 8.8 and 2.1 and 0.19 | D1 Latency (FR48) (CP612-Low, individual rats): 1.1 and 1.6 and 3.8 and 0.332 and 0.655 and 0.6 and 0.368 and 0.073 | D1 Latency (FR96) (CP612-Low, individual rats): 0.8 and 0.108 and 8.1 and 0.57 and 0.062 and 1.6 and 0.143 | D2 Latency (FR1) (CP612-Low, individual rats): 4.7 and 1.8 and 0.14 and 0.425 and 1.0 and 0.13 and 1.5 and 0.027 | D2 Latency (FR3) (CP612-Low, individual rats): 1.1 and 2.8 and 7.9 and 0.445 and 0.067 and 3.5 and 0.035 and 0.2 | D2 Latency (FR6) (CP612-Low, individual rats): 1.7 and 0.562 and 4.0 and 0.658 and 0.112 and 0.9 and 0.143 and 0.147 | D2 Latency (FR12) (CP612-Low, individual rats): 2.2 and 0.8 and 0.4 and 0.355 and 0.1 and 3.4 and 2.9 and 1.5 | D2 Latency (FR24) (CP612-Low, individual rats): 0.76 and 0.282 and 0.4 and 0.9 and 0.148 and 1.5 and 0.188 and 1.2 | D2 Latency (FR48) (CP612-Low, individual rats): 0.337 and 3.0 and 0.6 and 0.4 and 1.0 and 4.6 and 0.3 and 3.2 | D2 Latency (FR96) (CP612-Low, individual rats): 1.5 and 0.245 and 0.8 and 0.533 and 1.6 and 0.055 and 3.5 and 0.375 | D3 Latency (FR1) (CP612-Low, individual rats): 2.1 and 0.145 and 0.175 and 0.9 and 0.5 and 2.5 and 0.8 and 0.017 | D4 Latency (FR1) (CP612-Low, individual rats): 0.433 and 0.6 and 0.143 and 1.0 and 0.3 and 0.258 and 0.24 and 2.0 | last Latency (FR1) (CP612-Low, individual rats): 0.283 and 0.653 and 0.332 and 0.9 and 0.03 and 1.7 and 0.163 and 0.342 | last-1 Latency (FR1) (CP612-Low, individual rats): 0.433 and 0.6 and 0.237 and 1.0 and 0.3 and 0.258 and 0.24 and 2.0 | last-2 Latency (FR1) (CP612-Low, individual rats): 2.1 and 0.145 and 0.143 and 0.9 and 0.5 and 2.5 and 0.8 and 0.017 | last-3 Latency (FR1) (CP612-Low, individual rats): 4.7 and 1.8 and 0.175 and 0.425 and 1.0 and 0.13 and 0.8 and 0.017 | AVG Latency (FR1_D1 to D4) (CP612-Mid, individual rat): 1.3 and 0.461 and 0.5 and 1.6 | AVG Latency (FR1_Last 2 FR1 days) (CP612-Mid, individual rat): 0.475 and 0.9 and 0.261 and 0.6 and 3.4 | AVG Latency (FR1_Last 4 FR1 days) (CP612-Mid, individual rat): 0.356 and 0.538 and 0.317 and 0.363 and 1.9 | AVG Latency (FR3) (CP612-Mid, individual rat): 0.8 and 0.466 and 1.2 and 0.0825 | AVG Latency (FR6) (CP612-Mid, individual rat): 0.633 and 1.0 and 0.8 and 3.0 and 4.9
